Measured values from PMC7242285, “JNJ-4178 (adafosbuvir, odalasvir, and simeprevir) in Japanese patients with chronic hepatitis C virus genotype 1 or 2 infection with or without compensated cirrhosis: the Phase IIa OMEGA-3 study” (Journal of Gastroenterology, 2020).
Like-named read-outs stand apart in the source and are kept apart here. One block for each compound: values may come before it.

Legend:
[1] = OMEGA-3: plasma pharmacokinetics (sparse sampling and Week 4 intensive sub-study); format: in vivo, human (Japanese patients)
Experimental: Blood samples for the assessment of the plasma pharmacokinetics of adafosbuvir (and its metabolites ALS-022399 and ALS-022227), odalasvir, and simeprevir were collected in all patients pre-dose, between 2 and 4 h post-dose, and between 4 and 6 h post-dose at Weeks 2, 4, 6, and 8 (Cohort 2 only) and EOT (Weeks 8 or 12). An additional plasma sample was taken at any time during the Week-12 follow-up visit for measurement of odalasvir only.
Additional blood samples were also obtained at Week 4 in a subgroup of patients (planned: ≥ 6 patients per cohort) who consented to intensive pharmacokinetic sampling (pharmacokinetic sub-study). Blood samples for adafosbuvir (and its metabolites ALS-022399 and ALS-022227), odalasvir, and simeprevir plasma concentrations were collected pre-dose and at 1, 2, 3, 4, 6, 8, 10, 12, and 24 h post-dose.
Plasma concentrations of adafosbuvir, ALS-022399, ALS-022227, simeprevir, and odalasvir were determined using validated liquid chromatography–mass spectrometry methods. The LLOQ for adafosbuvir and odalasvir was 1.00 ng/mL, for ALS-022399 was 2.00 ng/mL, for ALS-022227 was 5.00 ng/mL, and for simeprevir was 20.0 ng/mL.
Descriptive statistics for plasma concentrations of adafosbuvir (and its metabolites), odalasvir, and simeprevir were calculated at each sampling time point. Pharmacokinetic parameters were derived by non-compartmental pharmacokinetic analysis of adafosbuvir (and its metabolites), odalasvir, and simeprevir in the pharmacokinetic sub-study using actual sampling time points and plasma concentrations obtained during intensive sampling at Week 4. Graphs of the mean plasma concentration–time profiles were produced. An exploratory graphical pharmacokinetic/pharmacodynamic analysis was performed by means of scatter plots of pharmacodynamic parameters (individual PR interval [mean of the triplicate ECG measurements] and change from baseline in PR interval [Day 1 was baseline]) versus odalasvir plasma concentrations.

[2] = system: HCV GTs 1–6; design: method as in doi:10.1016/S0168-8278(17)31470-8, PMID 30070722, PMID 30325939; settings: cited from earlier work
[3] = OMEGA-3 Phase IIa study: adverse events and laboratory safety; format: in vivo, human (Japanese patients); settings: given as part of JNJ-4178
Excerpt: The study comprised a 6-week screening phase, an 8-week (Cohort 1: patients with no cirrhosis) or 12-week (Cohort 2: patients with compensated cirrhosis) open-label treatment phase, and a 24-week post-treatment follow-up period. Given that patients with HCV and compensated cirrhosis potentially have a higher safety risk than patients without compensated cirrhosis, dosing of Cohort 2 was only initiated after all safety data had been reviewed up to Week 4 for the first six patients in Cohort 1 by an independent Data Review Committee (Fig. 1). This study was conducted in accordance with the ethical principles that have their origin in the Declaration of Helsinki and that are consistent with Good Clinical Practices and applicable regulatory requirements. The study was approved by the relevant Institutional Review Board at each study center. All patients provided written, informed consent to participate.
Study drugs were administered orally with food at approximately the same time in the morning, each day.
(§1) The primary endpoint was safety, including but not limited to AEs, physical examination, vital signs, 12-lead ECGs, echocardiograms, and clinical laboratory results.
(§2) AEs were reported throughout the study from the time that informed consent to participate was received until completion of the last visit. Complete physical examination, vital signs assessments, and blood and urine sampling for clinical laboratory assessments (including hematological, serum chemistry, liver function, and urinalysis tests) were performed at screening and throughout the study. Triplicate ECGs and echocardiography were also performed at screening and during the study.
The safety analysis was performed on the Safety Set (all patients who received at least one dose of study drug). Safety data were analyzed descriptively. AEs were coded using the Medical Dictionary for Regulatory Activities (version 20.0). Laboratory abnormalities were assessed according to the World Health Organization Toxicity Grading Scale.

[4] = design: method as in PMID 29736243; settings: single-dose pharmacokinetic studies (data on file) ref 24; cited from earlier work
[5] = OMEGA-3: ECG and echocardiography; format: in vivo, human (Japanese patients); settings: graphical evaluation
Excerpt: as §1, §2
Descriptive statistics for plasma concentrations of adafosbuvir (and its metabolites), odalasvir, and simeprevir were calculated at each sampling time point. Pharmacokinetic parameters were derived by non-compartmental pharmacokinetic analysis of adafosbuvir (and its metabolites), odalasvir, and simeprevir in the pharmacokinetic sub-study using actual sampling time points and plasma concentrations obtained during intensive sampling at Week 4. Graphs of the mean plasma concentration–time profiles were produced. […]

[6] = system: HCV GT1, GT2, GT4, GT5, and GT6; design: method as in PMID 30693573, doi:10.1016/S0168-8278(12)60857-5; settings: cited from earlier work
[7] = system: HCV GT3; design: method as in PMID 30693573; settings: HCV GT3 (data on file); cited from earlier work
[8] = system: CYP1A2; design: method as in PMID 26453968; settings: cited from earlier work
[9] = system: HCV GT3; design: method as in PMID 22326470; settings: cited from earlier work
[10] = system: HCV GT1, GT2, GT4, GT5, and GT6; design: method as in PMID 22326470; settings: cited from earlier work
[11] = system: CYP3A; settings: cited from earlier work
[12] = Cohort 1: no cirrhosis (N = 22), 8 weeks
[13] = Cohort 2: compensated cirrhosis (N = 11), 12 weeks

AUC24h, mean (SD) ([1]; human, in vivo): 6688 (3116) ng.h/mL
Cmax, mean (SD) ([1]; human, in vivo): 974 (554) ng/mL
SMILES: C[C@]1(O)[C@H](n2ccc(=O)[nH]c2=O)O[C@](F)(CO)[C@H]1O [ALS-022227]
Steady state judged from Ctrough levels ([1]; in vivo): steady-state exposure had been reached by Week 2

SMILES: CC(C)OC(=O)[C@H](C)N[P@](=O)(OC[C@@]1(F)O[C@@H](n2ccc(=O)[nH]c2=O)[C@](C)(O)[C@@H]1O)Oc1ccccc1 [adafosbuvir]
Antiviral activity [2]: potent antiviral activity
Plasma trough concentration (Ctrough) ([1]; all visits, both patient cohorts, LLOQ 1.00 ng/mL adafosbuvir, 2.00 ng/mL ALS-022399): below the limit of quantification
AUC(0-t) ([1]; human, in vivo, plasma, Week 4, intensive sampling, Cohort 2 (n=2), first value listed, read-out: AUC24h, individual value): 3020 ng·h/mL
Cmax ([1]; human, in vivo, plasma, Week 4, intensive sampling, Cohort 2 (n=2), first value listed, read-out: Cmax, individual value): 964 ng/mL
AUC(0-t) ([1]; human, in vivo, plasma, Week 4, intensive sampling, Cohort 2 (n=2), second value listed, read-out: AUC24h, individual value): 3030 ng·h/mL
Cmax ([1]; human, in vivo, plasma, Week 4, intensive sampling, Cohort 2 (n=2), second value listed, read-out: Cmax, individual value): 1430 ng/mL
AUC(0-t) ([1]; human, in vivo, plasma, Week 4, intensive sampling, JNJ-4178 dosing, Cohort 1: no cirrhosis (n=8), read-out: AUC24h, mean (SD)): 1660 ng·h/mL
Cmax ([1]; human, in vivo, plasma, Week 4, intensive sampling, JNJ-4178 dosing, Cohort 1: no cirrhosis (n=8), read-out: Cmax, mean (SD)): 903 ng/mL
Treatment-related AE at least possibly related to the named drug [3, 12]: 6 (27.3) n (%)
Treatment-related AE at least possibly related to the named drug [3, 13]: 3 (27.3) n (%)
Treatment-related AE at least possibly related to the named drug ([3]; Overall (N = 33)): 9 (27.3) n (%)

AUC24h, mean (SD) ([1]; human, in vivo): 6320 (1898) ng.h/mL
Cmax, mean (SD) ([1]; human, in vivo): 342 (113) ng/mL
Maximum Cmax among pharmacokinetic sub-study patients ([1]; human, in vivo): 546 ng/mL
Ctrough levels in Cohort 2 compared with Cohort 1 ([1]; in vivo): modestly lower
Highest pre-dose concentration among patients ([1]; in vivo): 474 to 889 ng/mL
SMILES: COC(=O)N[C@H](C(=O)N1[C@H](c2nc3cc(-c4cc5ccc4CCc4ccc(c(-c6ccc7[nH]c([C@@H]8C[C@@H]9CCCC[C@@H]9N8C(=O)[C@@H](NC(=O)OC)C(C)C)nc7c6)c4)CC5)ccc3[nH]2)C[C@@H]2CCCC[C@@H]21)C(C)C [odalasvir]
Terminal elimination half-life [4]: approximately 250 h
Relationship between PR interval (absolute and change from baseline) and plasma concentrations [5]: no apparent relationship
Potency [6]: picomolar
Activity [7]: nanomolar
Steady state judged from Ctrough levels ([1]; in vivo): steady-state conditions had not entirely been reached yet at Week 4
Treatment-related AE at least possibly related to the named drug [3, 12]: 9 (40.9) n (%)
Treatment-related AE at least possibly related to the named drug [3, 13]: 4 (36.4) n (%)
Treatment-related AE at least possibly related to the named drug ([3]; Overall (N = 33)): 13 (39.4) n (%)

Ctrough, max (between-patient variability) ([1]; human, in vivo): 6090 ng/mL
Ctrough, min (between-patient variability) ([1]; human, in vivo): 92.2 ng/mL
AUC(0-t) ([1]; human, in vivo, AUC24h, mean (SD)): 26900 ng·h/mL
Cmax ([1]; human, in vivo, Cmax, mean (SD)): 2200 ng/mL
Ctrough levels in Cohort 2 compared with Cohort 1 ([1]; in vivo): higher
SMILES: COc1ccc2c(O[C@@H]3C[C@H]4C(=O)N[C@]5(C(=O)NS(=O)(=O)C6CC6)C[C@H]5/C=C\CCCCN(C)C(=O)[C@@H]4C3)cc(-c3nc(C(C)C)cs3)nc2c1C [simeprevir]
Inhibition of CYP1A2 [8]: mild, but not clinically relevant, inhibitor
Antiviral activity in infected patients [9]: no antiviral activity
Antiviral activity in infected patients [10]: demonstrated antiviral activity
Steady state judged from Ctrough levels ([1]; human, in vivo): steady-state exposure had been reached by Week 2
Treatment-related AE at least possibly related to the named drug [3, 12]: 6 (27.3) n (%)
Treatment-related AE at least possibly related to the named drug [3, 13]: 2 (18.2) n (%)
Treatment-related AE at least possibly related to the named drug ([3]; Overall (N = 33)): 8 (24.2) n (%)
Metabolism [11]: metabolized by cytochrome P450 (CYP) 3A
Inhibition of CYP3A ([11]; intestinal (not hepatic) CYP3A): mild inhibitor
